Results as given in ChEMBL document CHEMBL1201862, “PubChem BioAssay data set” (2004).
“And” between values parts separate entries of the source, which are not always exact repeats. Identical values can stand only once.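 How tested: cells in 96-well plates exposed to compound for 48 hours at five concentrations. Abbreviation: GI50, concentration required for 50% inhibition of growth.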 The source made the active and inactive calls. Cut-off read from the data, not from the text of the source: active = GI50 up to about 1.1 µM and inactive = higher.

Tests used:
Assay in all cases: DTP human tumour cell line panel, 48 h
HL-60 = tested on: HL-60
MDA-N = tested on: MDA-N
SF-268 = tested on: SF-268
OVCAR-5 = tested on: OVCAR-5
SR = tested on: SR
U-251 = tested on: U-251
A498 = tested on: A498
SK-MEL-2 = tested on: SK-MEL-2
EKVX = tested on: EKVX
786-0 = tested on: 786-0
SW-620 = tested on: SW-620
SNB-75 = tested on: SNB-75
MDA-MB-231 = tested on: MDA-MB-231
SK-OV-3 = tested on: SK-OV-3
K562 = tested on: K562
SF-539 = tested on: SF-539
Malme-3M = tested on: Malme-3M
HCC 2998 = tested on: HCC 2998
OVCAR-4 = tested on: OVCAR-4

SMILES	GI50 (HL-60)	GI50 (MDA-N)	GI50 (SF-268)	GI50 (OVCAR-5)	GI50 (SR)	GI50 (U-251)	GI50 (A498)	GI50 (SK-MEL-2)	GI50 (EKVX)	GI50 (786-0)	GI50 (SW-620)	GI50 (SNB-75)	GI50 (MDA-MB-231)	GI50 (SK-OV-3)	GI50 (K562)	GI50 (SF-539)	GI50 (Malme-3M)	GI50 (HCC 2998)	GI50 (OVCAR-4)
N#Cc1nc(-c2cnccn2)oc1N	> 100 µM (inactive)	> 100 µM (inactive)	> 100 µM (inactive)	> 100 µM (inactive)	> 100 µM (inactive)	> 100 µM (inactive)	> 100 µM (inactive)	> 100 µM (inactive)	> 100 µM (inactive)	> 100 µM (inactive)	> 100 µM (inactive)	> 100 µM (inactive)	> 100 µM (inactive)	> 100 µM (inactive)	> 100 µM (inactive)	–	–	–	–
COCCN(C(=O)c1ccccc1)C1CCC2(SCCS2)c2[nH]c3ccccc3c21 (stereo not given)	14.9 µM (inactive)	–	> 100 µM (inactive)	> 100 µM (inactive)	29.7 µM (inactive)	46.9 µM (inactive)	45.7 µM (inactive)	–	30.3 µM (inactive)	60.8 µM (inactive)	33.3 µM (inactive)	70.1 µM (inactive)	57.7 µM (inactive)	–	15.9 µM (inactive)	85.5 µM (inactive)	36.2 µM (inactive)	51.4 µM (inactive)	–
COC(=O)C1CCC(=O)N1CN(C(C)=O)c1ccccc1Cl (stereo not given)	–	> 100 µM (inactive)	> 100 µM (inactive)	> 100 µM (inactive)	> 100 µM (inactive)	> 100 µM (inactive)	> 100 µM (inactive)	> 100 µM (inactive)	> 100 µM (inactive)	> 100 µM (inactive)	> 100 µM (inactive)	> 100 µM (inactive)	> 100 µM (inactive)	> 100 µM (inactive)	> 10 µM (inactive)	> 100 µM (inactive)	> 100 µM (inactive)	> 100 µM (inactive)	> 100 µM (inactive)
CCOCCOC(=O)C1CCC(=O)N1CN(C(C)=O)c1cc(OC)ccc1OC (stereo not given)	–	> 100 µM (inactive)	> 100 µM (inactive)	> 100 µM (inactive)	1 µM (active)	> 100 µM (inactive)	> 100 µM (inactive)	> 100 µM (inactive)	> 100 µM (inactive)	> 100 µM (inactive)	> 100 µM (inactive)	> 100 µM (inactive)	> 100 µM (inactive)	> 100 µM (inactive)	> 100 µM (inactive)	> 100 µM (inactive)	> 100 µM (inactive)	–	> 100 µM (inactive)
CC(C)CC1CC2C(=O)N(c3ccccc3)C(=O)C2c2[nH]c3ccccc3c21 (stereo not given)	15.3 µM (inactive)	–	> 56.2 µM (inactive)	> 100 µM (inactive)	10.4 µM (inactive)	25 µM (inactive)	> 36.3 µM (inactive)	25.6 µM (inactive)	> 52.2 µM (inactive)	66.5 µM (inactive)	23.8 µM (inactive)	13.1 µM (inactive)	–	21.4 µM (inactive)	6.1 µM (inactive)	23.2 µM (inactive)	9.73 µM (inactive)	17.4 µM (inactive)	8.3 µM (inactive)
C=C(CN(CC(=C)C(=O)c1ccccc1)C(C)(C)C)C(=O)c1ccccc1	2.53 µM (inactive)	–	12.2 µM (inactive)	19.6 µM (inactive)	2.1 µM (inactive)	20.5 µM (inactive)	18.3 µM (inactive)	18.2 µM (inactive)	18.9 µM (inactive)	11.3 µM (inactive)	2.82 µM (inactive)	12.8 µM (inactive)	–	18.4 µM (inactive)	3.01 µM (inactive)	16.8 µM (inactive)	15.3 µM (inactive)	19 µM (inactive)	11.6 µM (inactive)
N#CC1(C#N)C2C=CC(c3coc4cccc2c34)C1(C#N)C#N (stereo not given)	1.45 µM (inactive)	–	6.27 µM (inactive)	17 µM (inactive)	3.01 µM (inactive)	19.5 µM (inactive)	20.4 µM (inactive)	31.7 µM (inactive)	15.5 µM (inactive)	20.5 µM (inactive)	1.61 µM (inactive)	19.4 µM (inactive)	–	17.7 µM (inactive)	2.27 µM (inactive)	20.2 µM (inactive)	7.05 µM (inactive)	15.2 µM (inactive)	31.8 µM (inactive)
Cc1[nH]n(-c2nc3c(c(=O)[nH]2)CCCC3)c(=O)c1CCO	> 100 µM (inactive)	> 100 µM (inactive)	> 100 µM (inactive)	> 100 µM (inactive)	–	> 100 µM (inactive)	> 100 µM (inactive)	> 100 µM (inactive)	> 100 µM (inactive)	> 100 µM (inactive)	> 100 µM (inactive)	–	> 100 µM (inactive)	> 100 µM (inactive)	> 100 µM (inactive)	> 100 µM (inactive)	> 100 µM (inactive)	> 100 µM (inactive)	> 100 µM (inactive)
C=Cc1ccccc1C1(O)C=CC(OC)(OC)C=C1	3.4 µM (inactive)	–	9.62 µM (inactive)	6.93 µM (inactive)	2.65 µM (inactive)	3.66 µM (inactive)	23.2 µM (inactive)	17.3 µM (inactive)	14.7 µM (inactive)	5.04 µM (inactive)	3.8 µM (inactive)	18.8 µM (inactive)	10.5 µM (inactive)	13.9 µM (inactive)	7.6 µM (inactive)	2.72 µM (inactive)	13.5 µM (inactive)	18.5 µM (inactive)	17.8 µM (inactive)
OC(c1ccccc1)(c1ccccc1)c1ccccn1	71.3 µM (inactive)	–	> 100 µM (inactive)	> 100 µM (inactive)	> 100 µM (inactive)	> 100 µM (inactive)	> 100 µM (inactive)	> 100 µM (inactive)	> 100 µM (inactive)	> 100 µM (inactive)	> 100 µM (inactive)	> 100 µM (inactive) and 63.7 µM (inactive)	–	> 100 µM (inactive)	> 100 µM (inactive)	> 100 µM (inactive)	> 100 µM (inactive)	> 100 µM (inactive)	> 100 µM (inactive)
CC(=C\c1ccccc1)/C=C(\C#N)C(N)=O	–	> 10 µM (inactive)	> 10 µM (inactive)	> 10 µM (inactive)	–	> 10 µM (inactive)	> 10 µM (inactive)	> 10 µM (inactive)	> 10 µM (inactive)	> 10 µM (inactive)	> 10 µM (inactive)	> 10 µM (inactive)	> 10 µM (inactive)	> 10 µM (inactive)	–	> 10 µM (inactive)	> 10 µM (inactive)	> 10 µM (inactive)	–
O=C(CN1CCOCC1)c1ccc2c(c1)oc(=O)n2CCN1CCOCC1	> 100 µM (inactive)	> 100 µM (inactive)	> 100 µM (inactive)	> 100 µM (inactive)	> 100 µM (inactive)	> 100 µM (inactive)	> 100 µM (inactive)	> 100 µM (inactive)	> 100 µM (inactive)	> 100 µM (inactive)	> 100 µM (inactive)	> 100 µM (inactive)	> 100 µM (inactive)	> 100 µM (inactive)	> 100 µM (inactive)	> 100 µM (inactive)	> 100 µM (inactive)	–	–
